Results as given in ChEMBL document CHEMBL3044536, “The synthesis, anti-inflammatory, and anti-microbial activity evaluation of new series of 4-(3-arylureido)phenyl-1,4-dihydropyridine urea derivatives” (2013).
Converted amounts (≈) assume the structure as drawn. The source made the active and inactive calls. The rule behind the calls is not given here.

Assays:
Escherichia coli [1] = experiment: Antibacterial activity against Escherichia coli; type: functional
Salmonella typhimurium [2] = experiment: Antibacterial activity against Salmonella enterica subsp. enterica serovar Typhimurium; type: functional
Bacillus subtilis [3] = experiment: Antibacterial activity against Bacillus subtilis; type: functional
Staphylococcus aureus [4] = experiment: Antibacterial activity against Staphylococcus aureus; type: functional
Bacillus subtilis [5] = experiment: Antibacterial activity against Bacillus subtilis up to 200 ug/ml; type: functional, organism-based
Aspergillus niger [6] = experiment: Antifungal activity against Aspergillus niger; type: functional
Candida albicans [7] = experiment: Antifungal activity against Candida albicans; type: functional
THP-1 [8] = experiment: Anti-inflammatory activity in Homo sapiens (human) THP1 cells assessed as inhibition of LPS-induced TNFalpha production at 10 uM incubated for 30 min prior to LPS-challenge measured after 24 hr by ELISA; type: functional
THP-1 [9] = experiment: Anti-inflammatory activity in Homo sapiens (human) THP1 cells assessed as inhibition of LPS-induced IL6 production at 10 uM incubated for 30 min prior to LPS-challenge measured after 24 hr by ELISA; type: functional
Aspergillus flavus [10] = experiment: Antifungal activity against Aspergillus flavus; type: functional
Fusarium solani [11] = experiment: Antifungal activity against Fusarium solani; type: functional
THP-1 [12] = experiment: Anti-inflammatory activity in Homo sapiens (human) THP1 cells assessed as inhibition of LPS-induced TNFalpha production at 1 uM incubated for 30 min prior to LPS-challenge measured after 24 hr by ELISA; type: functional
THP-1 [13] = experiment: Anti-inflammatory activity in Homo sapiens (human) THP1 cells assessed as inhibition of LPS-induced IL6 production at 1 uM incubated for 30 min prior to LPS-challenge measured after 24 hr by ELISA; type: functional
Staphylococcus aureus [14] = experiment: Ratio of ciprofloxacin MIC to compound MIC for Staphylococcus aureus; type: functional
Escherichia coli [15] = experiment: Ratio of ciprofloxacin MIC to compound MIC for Escherichia coli; type: functional
Bacillus subtilis [16] = experiment: Ratio of ciprofloxacin MIC to compound MIC for Bacillus subtilis; type: functional
Salmonella typhimurium [17] = experiment: Ratio of ciprofloxacin MIC to compound MIC for Salmonella enterica subsp. enterica serovar Typhimurium; type: functional
Aspergillus niger [18] = experiment: Antifungal activity against Aspergillus niger relative to miconazole; type: functional
Aspergillus flavus [19] = experiment: Antifungal activity against Aspergillus flavus relative to miconazole; type: functional
Candida albicans [20] = experiment: Antifungal activity against Candida albicans relative to miconazole; type: functional
Fusarium solani [21] = experiment: Antifungal activity against Fusarium solani relative to miconazole; type: functional
Aspergillus niger [22] = experiment: Antifungal activity against Aspergillus niger up to 200 ug/ml; type: functional, organism-based
Aspergillus flavus [23] = experiment: Antifungal activity against Aspergillus flavus up to 200 ug/ml; type: functional, organism-based
Candida albicans [24] = experiment: Antifungal activity against Candida albicans up to 200 ug/ml; type: functional, organism-based
Staphylococcus aureus [25] = experiment: Antibacterial activity against Staphylococcus aureus up to 200 ug/ml; type: functional, organism-based
Fusarium solani [26] = experiment: Antifungal activity against Fusarium solani up to 200 ug/ml; type: functional, organism-based

Structure (SMILES) | MIC (Escherichia coli [1]) | MIC (Salmonella typhimurium [2]) | MIC (Bacillus subtilis [3]) | MIC (Staphylococcus aureus [4]) | MIC (Aspergillus niger [6]) | MIC (Candida albicans [7]) | inhibition at 10 µM (THP-1 [8]) | inhibition at 10 µM (THP-1 [9]) | MIC (Aspergillus flavus [10]) | MIC (Fusarium solani [11]) | also measured
O=C(O)c1cn(C2CC2)c2cc(N3CCNCC3)c(F)cc2c1=O [CIPROFLOXACIN] | 20 µg/mL (≈ 60.4 µM) | 25 µg/mL (≈ 75.4 µM) | 25 µg/mL (≈ 75.4 µM) | 20 µg/mL (≈ 60.4 µM) | – | – | – | – | – | – | –
CCOC(=O)C1=C(C)NC(C)=C(C(=O)OCC)C1c1ccc(NC(=O)Nc2cc(C(F)(F)F)ccc2Cl)cc1 | 65 µg/mL (≈ 115 µM) | 90 µg/mL (≈ 159 µM) | – | 80 µg/mL (≈ 141 µM) | 45 µg/mL (≈ 79.5 µM) | 65 µg/mL (≈ 115 µM) | 0% | 12% | 90 µg/mL (≈ 159 µM) | 90 µg/mL (≈ 159 µM) | Activity (Bacillus subtilis [5]): inactive
C[C@@H]1C[C@H]2[C@@H]3CCC4=CC(=O)C=C[C@]4(C)[C@@]3(F)[C@@H](O)C[C@]2(C)[C@@]1(O)C(=O)CO [DEXAMETHASONE] | – | – | – | – | – | – | – | – | – | – | inhibition at 1 µM (THP-1 [12]): 71%; inhibition at 1 µM (THP-1 [13]): 80%
CCOC(=O)C1=C(C)NC(C)=C(C(=O)OCC)C1c1ccc(NC(=O)Nc2ccc(F)cc2F)cc1 | 25 µg/mL (≈ 50 µM) | 25 µg/mL (≈ 50 µM) | 50 µg/mL (≈ 100 µM) | 45 µg/mL (≈ 90.1 µM) | 20 µg/mL (≈ 40 µM) | 35 µg/mL (≈ 70.1 µM) | 28% | 54% | 35 µg/mL (≈ 70.1 µM) | 20 µg/mL (≈ 40 µM) | Ratio (Staphylococcus aureus [14]): 2; Ratio (Escherichia coli [15]): 2; Ratio (Bacillus subtilis [16]): 2; Ratio (Salmonella typhimurium [17]): 2
CCOC(=O)C1=C(C)NC(C)=C(C(=O)OCC)C1c1ccc(NC(=O)Nc2ccc(Cl)cc2C(F)(F)F)cc1 | 45 µg/mL (≈ 79.5 µM) | 60 µg/mL (≈ 106 µM) | 70 µg/mL (≈ 124 µM) | 55 µg/mL (≈ 97.2 µM) | 85 µg/mL (≈ 150 µM) | 50 µg/mL (≈ 88.3 µM) | 83% | 91% | 80 µg/mL (≈ 141 µM) | 60 µg/mL (≈ 106 µM) | –
CCOC(=O)C1=C(C)NC(C)=C(C(=O)OCC)C1c1ccc(NC(=O)Nc2ccc(C#N)cc2)cc1 | 15 µg/mL (≈ 30.7 µM) | 10 µg/mL (≈ 20.5 µM) | 10 µg/mL (≈ 20.5 µM) | 10 µg/mL (≈ 20.5 µM) | 10 µg/mL (≈ 20.5 µM) | 20 µg/mL (≈ 40.9 µM) | 0% | 8% | 20 µg/mL (≈ 40.9 µM) | 25 µg/mL (≈ 51.2 µM) | Activity (Aspergillus niger [18]): >50%; Ratio (Staphylococcus aureus [14]): 2; Activity (Aspergillus flavus [19]): >50%; Activity (Candida albicans [20]): >50%; Ratio (Escherichia coli [15]): 2; Ratio (Bacillus subtilis [16]): 2; Activity (Fusarium solani [21]): >50%; Ratio (Salmonella typhimurium [17]): 2
CCOC(=O)C1=C(C)NC(C)=C(C(=O)OCC)C1c1ccc(NC(=O)Nc2ccc(C(F)(F)F)cc2)cc1 | 90 µg/mL (≈ 169 µM) | 90 µg/mL (≈ 169 µM) | 85 µg/mL (≈ 160 µM) | 60 µg/mL (≈ 113 µM) | 55 µg/mL (≈ 103 µM) | 45 µg/mL (≈ 84.7 µM) | 74% | 86% | 70 µg/mL (≈ 132 µM) | 90 µg/mL (≈ 169 µM) | –
CCOC(=O)C1=C(C)NC(C)=C(C(=O)OCC)C1c1ccc(NC(=O)Nc2cc(Cl)ccc2Cl)cc1 | 15 µg/mL (≈ 28.2 µM) | 15 µg/mL (≈ 28.2 µM) | 25 µg/mL (≈ 47 µM) | 15 µg/mL (≈ 28.2 µM) | 30 µg/mL (≈ 56.3 µM) | 10 µg/mL (≈ 18.8 µM) | 36% | 51% | 20 µg/mL (≈ 37.6 µM) | 10 µg/mL (≈ 18.8 µM) | Activity (Aspergillus niger [18]): >50%; Activity (Aspergillus flavus [19]): >50%; Activity (Candida albicans [20]): >50%; Activity (Fusarium solani [21]): >50%
CCOC(=O)C1=C(C)NC(C)=C(C(=O)OCC)C1c1ccc(NC(=O)Nc2ccc(F)cc2)cc1 | 65 µg/mL (≈ 135 µM) | 65 µg/mL (≈ 135 µM) | 80 µg/mL (≈ 166 µM) | 40 µg/mL (≈ 83.1 µM) | 45 µg/mL (≈ 93.5 µM) | 65 µg/mL (≈ 135 µM) | 42% | 68% | 85 µg/mL (≈ 177 µM) | 85 µg/mL (≈ 177 µM) | –
CCOC(=O)C1=C(C)NC(C)=C(C(=O)OCC)C1c1ccc(NC(=O)Nc2ccc(Cl)cc2)cc1 | 20 µg/mL (≈ 40.2 µM) | 35 µg/mL (≈ 70.3 µM) | 80 µg/mL (≈ 161 µM) | 65 µg/mL (≈ 131 µM) | 20 µg/mL (≈ 40.2 µM) | 30 µg/mL (≈ 60.2 µM) | 0% | 18% | 20 µg/mL (≈ 40.2 µM) | 20 µg/mL (≈ 40.2 µM) | –
CCOC(=O)C1=C(C)NC(C)=C(C(=O)OCC)C1c1ccc([N+](=O)[O-])cc1 | 90 µg/mL (≈ 240 µM) | 90 µg/mL (≈ 240 µM) | – | 90 µg/mL (≈ 240 µM) | – | – | 0% | 0% | – | 90 µg/mL (≈ 240 µM) | Activity (Bacillus subtilis [5]): inactive; Activity (Aspergillus niger [22]): inactive; Activity (Aspergillus flavus [23]): inactive; Activity (Candida albicans [24]): inactive
CCOC(=O)C1=C(C)NC(C)=C(C(=O)OCC)C1c1ccc(N)cc1 | 40 µg/mL (≈ 116 µM) | 45 µg/mL (≈ 131 µM) | 85 µg/mL (≈ 247 µM) | 60 µg/mL (≈ 174 µM) | – | 90 µg/mL (≈ 261 µM) | 0% | 0% | 90 µg/mL (≈ 261 µM) | 90 µg/mL (≈ 261 µM) | Activity (Aspergillus niger [22]): inactive
CCOC(=O)C1=C(C)NC(C)=C(C(=O)OCC)C1c1ccc(NC(=O)Nc2cc(F)ccc2F)cc1 | 70 µg/mL (≈ 140 µM) | 90 µg/mL (≈ 180 µM) | – | – | 90 µg/mL (≈ 180 µM) | 85 µg/mL (≈ 170 µM) | 78% | 96% | – | – | Activity (Bacillus subtilis [5]): inactive; Activity (Staphylococcus aureus [25]): inactive; Activity (Aspergillus flavus [23]): inactive; Activity (Fusarium solani [26]): inactive
CCOC(=O)C1=C(C)NC(C)=C(C(=O)OCC)C1c1ccc(NC(=O)Nc2ccc(Cl)cc2Cl)cc1 | 10 µg/mL (≈ 18.8 µM) | 20 µg/mL (≈ 37.6 µM) | 35 µg/mL (≈ 65.7 µM) | 20 µg/mL (≈ 37.6 µM) | 10 µg/mL (≈ 18.8 µM) | 15 µg/mL (≈ 28.2 µM) | 11% | 24% | 20 µg/mL (≈ 37.6 µM) | 25 µg/mL (≈ 47 µM) | –
Clc1ccc(COC(Cn2ccnc2)c2ccc(Cl)cc2Cl)c(Cl)c1 (stereo unspecified) [MICONAZOLE] | – | – | – | – | 20 µg/mL (≈ 48.1 µM) | 25 µg/mL (≈ 60.1 µM) | – | – | 20 µg/mL (≈ 48.1 µM) | 15 µg/mL (≈ 36 µM) | –
